Paper PMC6073423, “Dose-Dependent Increase in Unconjugated Cinnamic Acid Concentration in Plasma Following Acute Consumption of Polyphenol Rich Curry in the Polyspice Study” (Nutrients, 2018)
Read-outs that look alike come from different tables or passages of the source.

What was measured:
[1] = Plasma nutrikinetics of unconjugated phenolic/aromatic acids after curry test meals (LC-MS/MS, non-compartmental); settings: for AUC(0-t) / Cmax: male, human; for plasma concentration: all three doses
Source text: The detailed methods for this Polyspice study have been described elsewhere. In brief, this was a three-way randomized, controlled, crossover, acute feeding trial in healthy Chinese males (age 23.7 ± 2.30 y, BMI 23.0 ± 2.31 kg/m^2). Three days prior to the main test day, each volunteer avoided vigorous physical activity and adopted a low polyphenol diet. To help adhere to a ‘low polyphenol diet’ in this run-in period, volunteers were provided with a list of polyphenol rich foods to avoid, which consisted of some fruits and fruit juices, spices and condiments, olive oil, certain vegetables, whole grain cereals, cocoa products, tea (including Green tea), coffee, red wine etc. […] On the main test day, the volunteers arrived at the study center in the morning after an overnight fasting period of a minimum of 10 h. On each of 3 test sessions, the volunteers consumed in random order 1 of 3 test meals: Dose 0 Control (D0C), Dose 1 Curry (D1C) and Dose 2 Curry (D2C). D0C, D1C, and D2C contained 0 g, 6 g, and 12 g mixed spices respectively. The mixed spices were prepared by thoroughly mixing dried powders of 7 different spices consisting of turmeric (Everest Spices, Mumbai, India), coriander seeds (Everest Spices, Mumbai, India), cumin seeds (Everest Spices, Mumbai, India), dried Indian gooseberry (‘amla’, Emblica officinalis, Ramdev Spices, Ahmedabad, India), cayenne pepper (Robertson’s, Durban, South Africa), cinnamon (McCormick’s, Baltimore, MD, USA), and clove (Robertson’s, South Africa) in the ratio of 8:4:4:4:2:1:1 respectively. The ‘base vegetables’ used in the curry recipes consisted of tomatoes, onions, ginger, and garlic in the ratio of 5:2:1:1, with D0C, D1C and D2C containing 0 g, 90 g, and 180 g base vegetables respectively. […] The 3 test meals were matched for total vegetable content by including 130 g peeled eggplant (Solanum melongena) and 50 g tomatoes to D0C and 90 g peeled eggplant to D1C. Plain white rice was consumed along with each test meal and the composition of all 3 test meals were isocaloric and macronutrients matched. A standardized lunch was served after the 3 h postprandial blood draw time point, consisting of a made-to-order chicken lasagna (TopChoice Food Industries (S) Pte Ltd., Singapore), which specifically excluded polyphenol-rich ingredients such as black pepper, herbs, spices, onion, garlic or ginger from the product’s original recipe. There was a minimum of 1-week washout period between each session.
The plasma sample was centrifuged at 1500 g for 10 min at 4 °C within 45 min of collection. Aliquots were stored at −80 °C until analysis.
The panel of phenolic/aromatic acids chosen for analyses were based on the predicted metabolic fate of polyphenols contained within the ingredients used in our test meals, as described above. […] Ultra-pure water from Adrona (Rīga, Latvija) was used. Unless otherwise stated, all chemicals and reagents were obtained from Sigma-Aldrich (St. Louis, MO, USA).
Stock solutions of 10 mM of each analyte were prepared in acetonitrile. Baseline (0 h) plasma was pooled from all participants and used as a matrix in equal volume for each calibration standard. […] All standard solutions were freshly prepared and kept in −20 °C prior to use.
Protein precipitation was undertaken using 400 μL acetonitrile containing 1 µM of BA-d5 internal standard was added to 100 μL of plasma, calibration, quality control or blank samples. The sample was centrifuged at 16,000 g for 15 min at 4 °C. 400 μL of the supernatant was recovered and evaporated under a nitrogen flow. Finally, extracts were reconstituted with 80 μL of 90% mobile phase A and 10% mobile phase B.

[2] = cited from earlier work
[3] = Compartmental nutrikinetic modeling of the CNA plasma concentration-time profile (one-compartment, first-order elimination); type: in vivo; settings: male, human, oral; for AUC: read-out: AUC (one-compartment model); for Cmax: read-out: Cmax (one-compartment model); for k el: read-out: Ke, elimination rate constant (converted)
Description: Compartmental parameter estimates for CNA were determined after fitting of concentration data to several compartmental models on Phoenix WinNonlin (Table S3). The Gauss-Newton algorithm was applied and the final model selection was based on goodness-of-fit comparisons, examination of the residual plots, correlation of the observed and predicted values, and Akaike information criterion. 1/Y^2 model yielded the best fit amongst the various weighting schemes used (1/Y, 1/Y^2, and actual). The final nutrikinetic curve best fit into a one-compartment, first-order elimination, as described by:(1) C(T)=DKa/V (Ka−Ke) [e^−KeT−e^−KaT] where C is the plasma concentration, T is time, Ka is the first-order absorption rate, Ke is the first-order elimination rate constant, D is dose, and V is the apparent volume of distribution. Secondary parameters determined from the model included the Cmax, Tmax, AUC0–7 h as well as the terminal half-life.

[4] = set-up: method as in PMID 23604435; settings: cited from earlier work
[5] = plasma, oral, 12 g mixed spices
[6] = 0 g mixed spices, D0C, Figure 2C
[7] = 6 g mixed spices, D1C, Figure 2C
[8] = 12 g mixed spices, D2C, Figure 2C

| Structure (SMILES) | AUC(0-t) ([1]; plasma, oral, 0 g mixed spices) | Cmax ([1]; plasma, oral, 0 g mixed spices) | AUC(0-t) ([1]; plasma, oral, 6 g mixed spices) | Cmax ([1]; plasma, oral, 6 g mixed spices) | AUC(0-t) [1, 5] | Cmax [1, 5] | also measured |
| --- | --- | --- | --- | --- | --- | --- | --- |
| O=C(O)CCc1cccc(O)c1 [3-(3-hydroxyphenyl)-propanoic acid] | 0.182 ± 0.126 µM·h | 58.9 ± 39.1 nM | 0.283 ± 0.388 µM·h | 83.3 ± 79.5 nM | 0.226 ± 0.177 µM·h | 72.5 ± 48.6 nM |  |
| O=C(O)CCc1ccc(O)cc1 [3-(4-hydroxyphenyl)-propanoic acid] | 0.126 ± 0.115 µM·h | 31.4 ± 25 nM | 0.178 ± 0.12 µM·h | 48.6 ± 36.6 nM | 0.261 ± 0.132 µM·h | 81.7 ± 102 nM |  |
| O=C(O)c1cccc(O)c1 [3-Hydoxybenzoic acid (3OH-BA), 3-hydroxybenzoic acid] |  |  |  |  |  |  | plasma concentration [1]: below detection limits |
| O=C(O)CNC(=O)c1cccc(O)c1 [3-Hydroxyhippuric acid (3OH-HA), 3-hydroxyhippuric acid] | 0.0707 ± 0.0616 µM·h | 26.3 ± 22.5 nM | 0.0801 ± 0.0683 µM·h | 27.4 ± 19.1 nM | 0.0884 ± 0.0854 µM·h | 31.3 ± 26.5 nM |  |
| O=C(O)Cc1cccc(O)c1 [3-Hydroxyphenylacetic acid (3OH-PAA), 3-hydroxyphenylacetic acid] | 0.101 ± 0.112 µM·h | 28.1 ± 26.2 nM | 0.106 ± 0.07 µM·h | 27.2 ± 15.8 nM | 0.113 ± 0.0904 µM·h | 29.1 ± 20.5 nM |  |
| O=C(O)CCc1ccccc1 [3-Phenylpropanoate acid (PPA), 3-phenylpropanoic acid] | 0.831 ± 0.784 µM·h | 279 ± 322 nM | 2.39 ± 4.37 µM·h | 731 ± 1220 nM | 1.86 ± 3.43 µM·h | 554 ± 985 nM |  |
| O=C(O)CNC(=O)c1ccc(O)cc1 [4-Hydroxyhippuric acid (4OH-HA), 4-hydroxyhippuric acid] |  |  |  |  |  |  | plasma concentration [1]: below detection limits |
| O=C(O)c1ccccc1 [Benzoic acid (BA), benzoic acid] |  |  |  |  |  |  | AUC(0-t) ([1]; in vivo, 0 g mixed spices): 0.348 ± 0.0868 µM·h; Cmax ([1]; in vivo, 0 g mixed spices): 114 ± 36.7 nM; AUC(0-t) ([1]; in vivo, 6 g mixed spices): 0.347 ± 0.107 µM·h; Cmax ([1]; in vivo, 6 g mixed spices): 113 ± 33.6 nM; AUC(0-t) ([1]; in vivo, 12 g mixed spices): 0.355 ± 0.123 µM·h; Cmax ([1]; in vivo, 12 g mixed spices): 109 ± 34.6 nM |
| O=C(O)Cc1ccccc1 [Phenylacetic acid (PAA), phenylacetic acid] |  |  |  |  |  |  | AUC(0-t) ([1]; in vivo, 0 g mixed spices): 1.74 ± 1.24 µM·h; Cmax ([1]; in vivo, 0 g mixed spices): 433 ± 287 nM; AUC(0-t) ([1]; in vivo, 6 g mixed spices): 4.44 ± 2.97 µM·h; Cmax ([1]; in vivo, 6 g mixed spices): 1020 ± 826 nM; AUC(0-t) ([1]; in vivo, 12 g mixed spices): 4.13 ± 2.95 µM·h; Cmax ([1]; in vivo, 12 g mixed spices): 1000 ± 666 nM |

Second part, led by results:

| AUC(0-t) ([1]; plasma, oral, 0 g mixed spices) | Cmax ([1]; plasma, oral, 0 g mixed spices) | AUC(0-t) ([1]; plasma, oral, 6 g mixed spices) | Cmax ([1]; plasma, oral, 6 g mixed spices) | AUC(0-t) [1, 5] | Cmax [1, 5] | Structure (SMILES) | also measured |
| --- | --- | --- | --- | --- | --- | --- | --- |
| 0.036 ± 0.0233 µM·h | 13.7 ± 9.9 nM | 0.0542 ± 0.0346 µM·h | 18.3 ± 12.4 nM | 0.114 ± 0.207 µM·h | 41.5 ± 101 nM | O=C(O)c1ccc(O)cc1 [4-Hydroxybenzoic acid (4OH-BA), 4-hydroxybenzoic acid] |  |
| 2.07 ± 1.45 µM·h | 566 ± 322 nM | 2.38 ± 1.07 µM·h | 667 ± 305 nM | 2.17 ± 1.07 µM·h | 633 ± 285 nM | O=C(O)Cc1ccc(O)cc1 [4-Hydroxyphenylacetic acid (4OH-PAA), 4-hydroxyphenylacetic acid] |  |
| 0.0084 ± 0.0034 µM·h | 2.4 ± 0.7 nM | 0.376 ± 0.105 µM·h | 164 ± 47.7 nM | 0.876 ± 0.292 µM·h | 342 ± 83 nM | O=C(O)/C=C/c1ccccc1 [Cinnamic acid (CNA), cinnamic acid] | fraction eliminated via oxidation (β-oxidation) and subsequent glycine conjugation to form HA [2]: 63%; AUC [3, 6]: 0.0254 µM·h; Cmax [3, 6]: 2.73 nM; k el [3, 6]: 8.06e-05 s⁻¹; half-life ([3]; 0 g mixed spices, D0C, Figure 2C, read-out: T0.5, half-life (converted)): 142 min; Tmax ([3]; 0 g mixed spices, D0C, Figure 2C, read-out: Tmax (one-compartment model)): 205 min; AUC [3, 7]: 0.347 µM·h; Cmax [3, 7]: 144 nM; k el [3, 7]: 0.000297 s⁻¹; half-life ([3]; 6 g mixed spices, D1C, Figure 2C, read-out: T0.5, half-life (converted)): 39 min; Tmax ([3]; 6 g mixed spices, D1C, Figure 2C, read-out: Tmax (one-compartment model)): 56.4 min; AUC [3, 8]: 0.847 µM·h; Cmax [3, 8]: 323 nM; k el [3, 8]: 0.000289 s⁻¹; half-life ([3]; 12 g mixed spices, D2C, Figure 2C, read-out: T0.5, half-life (converted)): 40.2 min; Tmax ([3]; 12 g mixed spices, D2C, Figure 2C, read-out: Tmax (one-compartment model)): 58.2 min; half-life ([3]; no lag time, 1st order absorption, 1st order elimination, 1-compartment model, assumes elimination is rate-limiting, read-out: average elimination half-life (converted)): 39.6 min; Tmax ([3]; no lag time, 1st order absorption, 1st order elimination, 1-compartment model, read-out: Tmax (average, compartmental model)): 57.6 min; time of plasma peak post consumption ([1]; D1C and D2C): approximately 1 h; time of secondary peak in plasma ([1]; D1C and D2C periods, Figure 2A): around 3 h |
| 1.83 ± 1.42 µM·h | 1290 ± 706 nM | 3.22 ± 3.1 µM·h | 1370 ± 1170 nM | 3.06 ± 1.8 µM·h | 1080 ± 616 nM | O=C(O)CNC(=O)c1ccccc1 [Hippuric acid (HA), hippuric acid] | half-life [4]: 1320 min; maximum concentration in plasma ([1]; most abundant phenolic acid in plasma, Table 1): above 1200 nM |
